Experimental data from patent US11447525B2 (NIIGATA UNIVERSITY, priority 2018, dated 2022).
Non-standard residues stand in square brackets, D forms with d. Residues, ends and D or L forms follow the SMILES beside them. *: point of attachment. 5FAM = O=C1OC2(c3ccc(O)cc3Oc3cc(O)ccc32)c2ccc(C(=O)*)cc21

How the values were obtained:
[1] = tested on: pancreatic cancer cells (BxPC3, PK-8, MIA-Paca2); assay: Accumulation of FAM-labeled peptides in cells, inverted fluorescence microscope (Test Example 2); assay type: cell-based, human; conditions: 2 μM, 37° C., 2 hours
Method: (§1) Tests were conducted to confirm the accumulation of each peptide in each of the cells shown below in Table 8. Further, among the peptides shown below in Table 9, the FAM-PCPP11 used in Test Example 1, the LL peptide in which the N-terminus had been FAM-labeled (FAM-LL), and the Ld peptide in which the N-terminus had been FAM-labeled (FAM-Ld) were used.
(§2) Each of FAM-PCPP11, FAM-LL and FAM-Ld was added to each of the cells shown in Table 8 in an amount sufficient to achieve a final concentration in the medium of 2 μM, and following cultivation of the cells at 37° C. for 2 hours, the sample was washed 3 times with a medium containing no peptide to remove any peptide within the medium. Subsequently, the incorporation of each of the peptides into each of the cells was evaluated visually using an inverted fluorescence microscope. Prior to the microscopic examination, the culture supernatant to which the peptide had been added was removed, and following washing three times with 1×PBS (−), a trypsin treatment was conducted to remove the adherent cells, and the resultant was immediately transferred into a new 96-well plate and once again suspended in fresh culture solution before the microscopic examination was performed. In FIG. 8A, “L” indicates the cells to which FAM-PCPP11 was added, “LL” indicates the cells to which FAM-LL was added, and “Ld” indicates the cells to which FAM-Ld was added. Further, the fluorescent images in the BxPC3 cells indicate a representative example of pancreatic cancer cells.
(§3) Furthermore, FIG. 8B is a graph quantifying the fluorescence detected in each of the above cells in FIG. 8A, with the fluorescence intensity detected in each cell shown relative to a value of 1.0 for the fluorescence detected in the H2110 cells, which is a cell line derived from an adenocarcinoma in a human non-small-cell lung cancer system, to which each of the FAM-PCPP11 and FAM-LL peptides had been added.
Further, each of FAM-PCPP11, FAM-LL and FAM-NmLL was added to each of the cells shown in Table 8 in an amount sufficient to achieve a final concentration in the medium of 2 μM, and following cultivation of the cells at 37° C. for 2 hours, the sample was washed 3 times with a medium containing no peptide to remove any peptide within the medium. Subsequently, the incorporation of each of the peptides into each of the cells was evaluated visually using an inverted fluorescence microscope. […]

[2] = tested on: stomach cancer cells (SCH); assay: as above; assay type: cell-based, human; conditions: 2 μM, 37° C., 2 hours
Method: as §1, §2, §3

[3] = tested on: human pancreatic cancer growth and progression mouse model (subcutaneous and intraperitoneal human pancreatic cancer cell-transplanted); assay: Selective absorption into tissues of human pancreatic cancer growth and progression mouse model, fluorescence signal (Test Examples 3, 4, Reference Example 2); assay type: in vivo, Balb/c nu/nu mouse; conditions: 200 μg intravenously, 30 minutes after injection; for nonspecific absorption compared with conventional PCPP11: FIG. 10A to 10D; for absorption into pancreatic malignant tumors compared with the conventional PCPP11: FIG. 11
Method: Subsequently, 200 μg of each of the fluorescent labeled peptides prepared above in “1.” was injected intravenously into a human pancreatic cancer growth and progression mouse model (Balb/c nu/nu mouse, subcutaneous and intraperitoneal human pancreatic cancer cell-transplanted model). The pharmacokinetics of the peptide 30 minutes after the intravenous injection were then analyzed by tissue analysis of the freshly dissected specimen of the administered mouse, with the absorption quantified by detection of the fluorescence signal. […] In FIG. 9A, “sc tumor” is an abbreviation for “subcutaneous tumor”. In FIG. 9B, “abd tumor” is an abbreviation for “abdominal tumor”, indicating a tumor formed intraperitoneally. Further, “br” indicates the brain, “hr” indicates the heart, “kd” indicates the kidney, and “liv” indicates the liver. Furthermore, “liv. meta” is an abbreviation for “liver metastatic tumor”, and describes a tumor that has metastasized to the liver. Moreover, “panc” indicates the pancreas, and “sp” indicates the spleen. These same abbreviations are also used in subsequent figures. Furthermore, the term “untreated” in FIG. 9A indicates tissues resected from a mouse that was not administered with any fluorescent labeled peptide.
Specifically, first, either 27 μg or 200 μg of fluorescein was injected intravenously into a human pancreatic cancer growth and progression mouse model (Balb/c nu/nu mouse, subcutaneous and intraperitoneal human pancreatic cancer cell-transplanted model). The pharmacokinetics of the FLC 30 minutes after the intravenous injection were then analyzed by tissue analysis of the freshly dissected specimen of the administered mouse, with the absorption quantified by detection of the fluorescence signal.

[4] = tested on: pancreatic cancer cells (BxPC3, PK-8, MIA-Paca2, AsPC1, PL45, Panc-1); assay: Accumulation of various peptides in pancreatic cancer cells (Test Example 5); assay type: cell-based, human; conditions: 2 μM, 37° C., 2 hours
Method: Test were conducted to confirm the accumulation of various peptides in each of the cells shown below in Table 11. Further, the peptides shown below in Table 12 were used.
Each peptide was added to each of the cells shown in Table 11 in an amount sufficient to achieve a final concentration in the medium of 2 μM, and following cultivation of the cells at 37° C. for 2 hours, the sample was washed 3 times with a medium containing no peptide to remove any peptide within the medium. Subsequently, the incorporation of each of the peptides into each of the cells was evaluated visually using an inverted fluorescence microscope. Prior to the microscopic examination, the culture supernatant to which the peptide had been added was removed, and following washing three times with 1×PBS (−), a trypsin treatment was conducted to remove the adherent cells, and the resultant was immediately transferred into a new 96-well plate and once again suspended in fresh culture solution before the microscopic examination was performed. In FIG. 17, “L” indicates the cells to which FAM-PCPP11 was added, “d” indicates the cells to which FAM-d was added, “LL” indicates the cells to which FAM-LL was added, “LL2” indicates the cells to which FAM-LL2 was added, and “dd” indicates the cells to which FAM-dd was added.

[5] = tested on: scirrhous pancreatic cancer model mouse (BxPC3 cells; BxPC3 cells and hMSC); assay: Selective absorption of FAM-LL in tissues of scirrhous pancreatic cancer model mouse (Test Example 6); assay type: in vivo, NOD/SCID mouse; conditions: 200 μg into the caudal vein, 30 minutes after administration
Method: FAM-LL was administered to a pancreatic cancer model mouse having scirrhous carcinoma, and the selective absorption of the FAM-LL in various tissues of the mouse was confirmed. A scirrhous pancreatic cancer model mouse having scirrhous carcinoma that forms abundant tumor-stroma interactions was produced in accordance with the method disclosed in Reference Document 1 (Saito K et al., “Stromal mesenchymal stem cells facilitate pancreatic cancer progression by regulating specific secretory molecules through mutual cellular interaction.”, Journal of Cancer, Vol. 9, No. 16, pp. 2916-2929, 2018.). Specifically, a 6-week old NOD/SCID mouse (CLEA Japan Inc., Japan) was raised under pathogen-free conditions. BxPC3 cells (2×10^5 cells) and a cell mixture containing BxPC3 cells (1×10^5 cells) and human mesenchymal stem cells (hMSC) (1×10^5 cells) were each injected subcutaneously into the mouse.
FAM-LL (200 μg) was injected into the caudal vein of the obtained scirrhous pancreatic cancer model mouse. Subsequently, the pharmacokinetics of the peptide 30 minutes after administration were analyzed by tissue analysis of the freshly dissected specimen of the peptide-administered mouse. FIG. 18A is a series of bright-field images (left and center) and a fluorescent image (right) of the tumors in the scirrhous pancreatic cancer model mouse. […]

[6] = FIG. 8B, relative to H2110 cells = 1.0

inhibitory performance on nonspecific absorption into untargeted normal organs [3]	nonspecific absorption compared with conventional PCPP11 [3]	absorption into pancreatic malignant tumors compared with the conventional PCPP11 [3]	absorption into the cancer cell nests inside the tumor tissue [5]	absorption into the tumor tissue [5]	Compound	fluorescence compared with the sample containing FAM-PCPP11 [1]	increase of quantitative value for the fluorescence compared with FAM-PCPP11 [1, 6]	fluorescence compared with the sample containing FAM-PCPP11 [2]	increase of quantitative value for the fluorescence compared with FAM-PCPP11 [2, 6]	fluorescence compared with the other peptides [4]	fluorescence detected [4]
satisfactorily maintained	inhibited even more effectively	3 fold	strong absorption	strong absorption	C[C@@H](O)[C@H](NC(=O)[C@@H](NC(=O)[C@@H]1CCCN1C(=O)[C@H](CCCNC(=N)N)NC(=O)[C@H](CCCNC(=N)N)NC(=O)CNC(=O)[C@@H]1CCCN1C(=O)[C@H](CCCCN)NC(=O)[C@H](Cc1c[nH]cn1)NC(=O)[C@H](Cc1c[nH]c2ccccc12)NC(=O)[C@@H](NC(=O)[C@@H](NC(=O)[C@@H]1CCCN1C(=O)[C@H](CCCNC(=N)N)NC(=O)[C@H](CCCNC(=N)N)NC(=O)c1ccc2c(c1)C(=O)OC21c2ccc(O)cc2Oc2cc(O)ccc21)[C@@H](C)O)[C@@H](C)O)[C@@H](C)O)C(=O)N[C@@H](Cc1c[nH]c2ccccc12)C(=O)N[C@@H](Cc1c[nH]cn1)C(=O)N[C@@H](CCCCN)C(=O)N1CCC[C@H]1C(=O)O [FAM-LL] (5FAM-RRPTTWHKPGRRPTTWHKP-OH; C-terminus assumed)	stronger fluorescence	at least 2.9 fold	stronger fluorescence	at least 2.9 fold	stronger fluorescence	particularly strong fluorescence
–	–	–	–	–	C[C@@H](O)[C@H](NC(=O)[C@@H](NC(=O)[C@@H]1CCCN1C(=O)[C@H](CCCNC(=N)N)NC(=O)[C@H](CCCNC(=N)N)NC(=O)CNC(=O)[C@@H]1CCCN1C(=O)CNC(=O)[C@@H]1CCCN1C(=O)[C@H](CCCCN)NC(=O)[C@H](Cc1c[nH]cn1)NC(=O)[C@H](Cc1c[nH]c2ccccc12)NC(=O)[C@@H](NC(=O)[C@@H](NC(=O)[C@@H]1CCCN1C(=O)[C@H](CCCNC(=N)N)NC(=O)[C@H](CCCNC(=N)N)NC(=O)c1ccc2c(c1)C(=O)OC21c2ccc(O)cc2Oc2cc(O)ccc21)[C@@H](C)O)[C@@H](C)O)[C@@H](C)O)C(=O)N[C@@H](Cc1c[nH]c2ccccc12)C(=O)N[C@@H](Cc1c[nH]cn1)C(=O)N[C@@H](CCCCN)C(=O)N1CCC[C@H]1C(=O)O [FAM-LL2] (5FAM-RRPTTWHKPGPGRRPTTWHKP-OH; C-terminus assumed)	–	–	–	–	stronger fluorescence	–
satisfactorily maintained	inhibited even more effectively	approximately 4 fold	–	–	C[C@H](O)[C@@H](NC(=O)[C@@H](Cc1c[nH]c2ccccc12)NC(=O)[C@@H](Cc1c[nH]cn1)NC(=O)[C@@H](CCCCN)NC(=O)[C@H]1CCCN1C(=O)CNC(=O)[C@@H]1CCCN1C(=O)[C@H](CCCCN)NC(=O)[C@H](Cc1c[nH]cn1)NC(=O)[C@H](Cc1c[nH]c2ccccc12)NC(=O)[C@@H](NC(=O)[C@@H](NC(=O)[C@@H]1CCCN1C(=O)[C@H](CCCNC(=N)N)NC(=O)[C@H](CCCNC(=N)N)NC(=O)c1ccc2c(c1)C(=O)OC21c2ccc(O)cc2Oc2cc(O)ccc21)[C@@H](C)O)[C@@H](C)O)C(=O)N[C@@H](C(=O)N1CCC[C@@H]1C(=O)N[C@H](CCCNC(=N)N)C(=O)N[C@H](CCCNC(=N)N)C(=O)O)[C@H](C)O [FAM-Ld] (5FAM-RRPTTWHKPG[dP][dK][dH][dW][dT][dT][dP][dR][dR]-OH; C-terminus assumed)	stronger fluorescence	–	stronger fluorescence	–	–	–
